Data set [1] is described as follows: Stability of NR in liquid (water, milk). The data set is classed as physicochemical.
Data set [2] is described as follows: Body weight of early-weaned piglets given NR solution. The data set is classed as in vivo, piglets (Yorkshire/Hampshire crossbred). An excerpt: Sixteen (n=16) Yorkshire/Hampshire crossbred piglets were obtained from the University of California, Davis Swine Teaching and Research Center and received on lactation day (“LD”) 14. Prior to arrive, the piglets were processed by the suppler between 1-3 days of age by administration of iron and an antibiotic (Excede for swine) as is common practice at the University of California, Davis Swine Facility. It is not common practice at the University of California, Davis Swine Facility to give a second dose of iron and antibiotics unless it becomes necessary.
The piglets were from two litters (litters 15 and 17), weaned at 17 days of age, and randomly placed into one of two groups balanced for litter, sex, and weight. The animals were not acclimated to the facility at arrival and were subsequently acclimated to the test diet administration system. The piglets were weaned into a temperature-controlled room (approximately 27-29° C.) that contained 10 adjacent pens. The piglets were group-housed in the nursery room at the Swine Facility, which is an enclosed room with access restricted to trained personnel. The two groups were separated by one pen containing piglets of similar age.
Each morning enough nicotinamide riboside (NR, I) in water solution was prepared for that day's dose administration according to the dose preparation protocol. At least 5 mL of prepared dose was reserved and immediately frozen after preparation each day for analysis of nicotinamide riboside (NR, I) for the purpose of confirming stability of the dose material. The doses were stored at refrigeration temperature while not in use. Nicotinamide riboside (NR, I) was dosed once per day in the morning and at the same time each day. Piglets in the control group received the same volume of plain water and were dosed on the same schedule.
The daily amount of nicotinamide riboside (NR, I) approximated the dose (33 mg/kg) used in human investigations of efficacy in areas of mitochondrial dysfunction converted to piglet equivalent dose using the body surface area method. See A. B. Nair & S. Jacob, A simple practice guide for dose conversion between animals and human, 7 J. BASIC CLIN. PHARMA 27 (2016), incorporated by reference herein in its entirety.
Starting on Day 1, animals in the nicotinamide riboside (NR, I) group were dosed once daily (in the morning) with 277 mg nicotinamide riboside (NR, I) per pig resuspended in water for seven days. After one week, animals were dosed once daily with 342 mg nicotinamide riboside (NR, I) per pig delivered in 2.5 mL for seven days. For Days 1 and 2, the nicotinamide riboside (NR, I) solution was prepared by resuspending 2770 mg nicotinamide riboside (NR, I) in 50 mL water, and 5 mL of this solution was delivered to each pig by squirting it into the back of the mouth using a 10 mL syringe with a piece of tubing attached to the end. To reduce the volume to more efficiently deliver the nicotinamide riboside (NR, I) solution, the 2770 mg was resuspended in 25 mL water and 2.5 mL of the solution was squirted into the back of the mouth of each pig using a 3 mL syringe for Days 3-7. […]
All animals were weighed at weaning (baseline) and after one and two weeks of nicotinamide riboside (NR, I) supplementation. Fecal and activity scores were recorded daily using the scales listed below. Weights and fecal scores were analyzed using a two-factor repeated measures ANOVA (mixed-model ANOVA) with p values<0.05 considered significant. […]

These results are taken from patent publication US12433908B2, “Use of nicotinamide riboside, nicotinic acid riboside, and nicotinamide mononucleotide, reduced nicotinyl compounds, and nicotinoyl compound derivatives in infant formula for healthy development” (ChromaDex, Inc., priority 2016, dated 2025).

Structures are written as SMILES.

For the compound `NC(=O)c1ccc[n+]([C@@H]2O[C@H](CO)[C@@H](O)[C@H]2O)c1` [NR, Nicotinamide riboside], in data set [1] (cow's milk and human breast milk), the stability in milk entry is listed as “stable in milk”. Besides, the stability in water result in data set [1] (in water) is “unstable over time”. In addition, the “health, nutritional quality, normal growth of piglets weaned 7 days early” value in data set [2] (2-week feeding of NR) is reported as “did not negatively impact the health, nutritional quality, or normal growth”. Further, the Weight in data set [2] (Baseline, before dosing) came out at 7.77 ± 1.33 kg; in data set [2] (Wk 1, 277 mg/pig once daily oral) it was 8.33 ± 1.56 kg; in data set [2] (Wk 2, 342 mg/pig once daily oral Days 8-14), 9.39 ± 1.61 kg. For the same compound, the “body weight, NR vs. control” value in data set [2] (Week 1 or Week 2 of treatment) is on record as “no differences in body weight”.
